Tested on: Pseudomonas aeruginosa PAO1 MB9798 (efflux+, IMP-1)
Conditions: ratio MITC95 PA 9798/MITC95 PA 9799; imipenem at 2 μg/mL
How it was run: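 Isogenic PAO1 pair (efflux+ MB9798, efflux− MB9799, both IMP-1) tested by microbroth MIC with fixed imipenem and/or ceftazidime, usually at CLSI breakpoint, plus fixed class A/C inhibitor against AmpC. MBL inhibitor titrated; concentration restoring susceptibility recorded and fold difference between strains taken as efflux extent.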

Structure (SMILES) | Efflux ratio
C[C@H](CN)NS(=O)(=O)c1ccc(-c2cccc3[nH]c(N)nc23)c(-c2nn[nH]n2)c1S(N)(=O)=O [Example 187, 4-(2-amino-1H-benzo[d]imidazol-4-yl)-N^1—((R)-1-aminopropan-2-yl)-3-(2H-tetrazol-5-yl)benzene-1,2-disulfonamide] | 0.50
Nc1nc2c(-c3ccc(S(=O)(=O)N[C@@H]4CNC[C@@H]4O)c(S(N)(=O)=O)c3-c3nnn[nH]3)cccc2[nH]1 [Example 170, 4-(2-amino-1H-benzo[d]imidazol-4-yl)-N^1-((3R,4S)-4-hydroxypyrrolidin-3-yl)-3-(1H-tetrazol-5-yl)benzene-1,2-disulfonamide] | 1.00
CN(C)CCCN(C)S(=O)(=O)c1ccc(-c2cccc3sc(N)nc23)c(-c2nnn[nH]2)c1S(N)(=O)=O [Example 52, 4-(2-amino-1,3-benzothiazol-4-yl)-N1-[3-(dimethylamino)propyl]-N~1~-methyl-3-(1H-tetrazol-5-yl)benzene-1,2-disulfonamide] | 2.00
Nc1nc2c(-c3ccc(S(=O)(=O)N[C@H]4CN[C@H](CO)C4)c(S(N)(=O)=O)c3-c3nnn[nH]3)cccc2[nH]1 [Example 172, 4-(2-amino-1H-benzo[d]imidazol-4-yl)-N^1-((3R,5S)-5-(hydroxymethyl)pyrrolidin-3-yl)-3-(1H-tetrazol-5-yl)benzene-1,2-disulfonamide] | 0.50
Nc1nc2c(-c3ccc(S(=O)(=O)NC[C@H](N)CO)c(S(N)(=O)=O)c3-c3nn[nH]n3)cccc2[nH]1 [Example 191, 4-(2-amino-1H-benzo[d]imidazol-4-yl)-N^1—((S)-2-amino-3-hydroxypropyl)-3-(2H-tetrazol-5-yl)benzene-1,2-disulfonamide] | 1.00
Nc1nc2c(-c3ccc(S(N)(=O)=O)c(S(N)(=O)=O)c3-c3nn[nH]n3)cccc2s1 [Example 143, 4-(2-aminobenzo[d]thiazol-4-yl)-3-(2H-tetrazol-5-yl)benzene-1,2-disulfonamide] | 0.50
NCC(CN)NS(=O)(=O)c1ccc(-c2cccc(-c3nc[nH]n3)c2)c(-c2nn[nH]n2)c1S(N)(=O)=O [Example 227, N4-(1,3-diaminopropan-2-yl)-2-(2H-tetrazol-5-yl)-3′-(1H-1,2,4-triazol-3-yl)-[1,1′-biphenyl]-3,4-disulfonamide] | 1.00
Nc1nc2c(-c3ccc(S(=O)(=O)NCC4COCCN4)c(S(N)(=O)=O)c3-c3nn[nH]n3)cccc2[nH]1 (stereo not drawn) [Example 206, 4-(2-amino-1H-benzo[d]imidazol-4-yl)-N1-(morpholin-3-ylmethyl)-3-(2H-tetrazol-5-yl)benzene-1,2-disulfonamide] | 2.00
NC[C@@H](N)CNS(=O)(=O)c1ccc(-c2cccc3ccc(N)nc23)c(-c2nn[nH]n2)c1S(N)(=O)=O [Example 376, (R)-4-(2-aminoquinolin-8-yl)-N1-(2,3-diaminopropyl)-3-(2H-tetrazol-5-yl)benzene-1,2-disulfonamide] | 1.00
CN1CC[C@@H](CNS(=O)(=O)c2ccc(-c3cccc4sc(N)nc34)c(-c3nnn[nH]3)c2S(N)(=O)=O)C1 [Example 76, 4-(2-amino-1,3-benzothiazol-4-yl)-N^1-{[(3R)-1-methylpyrrolidin-3-yl]methyl}-3-(1H-tetrazol-5-yl)benzene-1,2-disulfonamide] | 0.50
NCCNS(=O)(=O)c1ccc(-c2cccc(-c3n[nH]c(N)n3)c2)c(-c2nn[nH]n2)c1S(N)(=O)=O [Example 228, 3′-(5-amino-1H-1,2,4-triazol-3-yl)-N4-(2-aminoethyl)-2-(2H-tetrazol-5-yl)-[1,1′-biphenyl]-3,4-disulfonamide] | 1.00
C[N+]1(C)CC[C@@H](NS(=O)(=O)c2ccc(-c3cccc4[nH]c(N)nc34)c(-c3nn[nH]n3)c2S(N)(=O)=O)C1.[Cl-] [Example 233, (R)-3-((4-(2-amino-1H-benzo[d]imidazol-4-yl)-2-sulfamoyl-3-(2H-tetrazol-5-yl)phenyl)sulfonamido)-1,1-dimethylpyrrolidin-1-ium chloride] | 1.00

From patent US10544130B2, “Metallo-beta-lactamase inhibitors” (priority 2015, dated 2020)
